According to patent US10160719B2, “Pharmaceutical salts” (GRUNENTHAL GMBH, priority 2001, dated 2018):
Structures can show the parent of a compound that is named as a salt.

Assay: water solubility determination at 20° C. in ion-free water
Details: for solubility at 10 min: water
Procedure: In a clear colorless vessel made of transparent material, such as, for example, glass or plastic, 1 ml of ion-free water or a fraction (amount A in ml) thereof is introduced at a temperature of 20° C.
If the amount of salt B added (in mg) completely dissolved, further amounts of the respective salt were slowly added. Each further addition was recorded and the solution behavior observed. As soon as the first turbidity due to undissolved salt was found by observation against a suitable background, stirring was continued for a further 10 minutes. If undissolved constituents subsequently remained, the sum C (in mg) of the amount of substance employed was determined. If a clear solution resulted again on stirring, further small amounts of the respective salt were added and the mixture was in each case stirred again for 10 minutes until a first turbidity remained on account of undissolved salts. The excess amount of undissolved substance was then brought into solution with stirring by addition of small amounts of water. After a clear solution had been obtained, the sum D (in ml) of the amount of water employed was determined. The solubility of the respective salt per 1 ml of water was then calculated according to the following formula: […]
If undissolved salt still remained then, the undissolved portion was brought into solution by addition of small amounts of water with stirring. After obtainment of a clear solution, the sum E (in ml) of the amounts of water employed was determined. The solubility of the respective salt per 1 ml of water was then calculated according to the following formula: […]

[1] = Solubility of the active compound saccharinate in mg/ml of water, saccharinate salt, ion-free water, 20° C.
[2] = Solubility of the active compound salt in mg/ml of water, conventional salt of the active compound (salt indicated in brackets), ion-free water, 20° C.
[3] = saccharinate salt, ion-free water, 20° C.

Compound	solubility at 10 min [1]	solubility at 10 min [2]	also measured
COc1cccc([C@@]2(O)C[C@H](O)CC[C@@H]2CN(C)C)c1 (racemic) [(1RS,3RS,6RS)-6-dimethylaminomethyl-1-(3-methoxy-phenyl)cyclohexane-1,3-diol]	≥ 71 mg/mL	≥ 500 mg/mL	–
COc1cccc([C@@]2(O)CC[C@H](OCc3ccc(F)cc3)C[C@@H]2CN(C)C)c1 [(+)-(1R,2R,4S)-2-dimethylaminomethyl-4-(4-fluorobenzyl-oxy)-1-(3-methoxy-phenyl)cyclohexanol]	–	–	solubility at 10 min (ion-free water, Solubility of the active compound saccharinate in mg/ml of water, saccharinate salt, 20° C.): ≥ 10 mg/mL; solubility at 10 min (ion-free water, Solubility of the active compound salt in mg/ml of water, conventional salt of the active compound (salt indicated in brackets), 20° C.): ≥ 33 mg/mL
CC[C@H](c1cccc(O)c1)[C@H](C)CN(C)C.Cl [(+)-(1S,2S)-3-(3-dimethylamino-1-ethyl-2-methylpropyl)phenol hydrochloride]	–	≥ 650 mg/mL	–
CC[C@H](c1cccc(O)c1)[C@H](C)CN(C)C.O=C1NS(=O)(=O)c2ccccc21 [(+)-(1S,2S)-3-(3-dimethylamino-1-ethyl-2-methylpropyl)phenol saccharinate]	–	–	Solubility of the active compound saccharinate in mg/ml of water [3]: ≥ 55 mg/ml of water
CC[C@@H](c1cccc(O)c1)[C@@H](C)CN(C)C [(−)-(1R,2R)-3-(3-dimethylamino-1-ethyl-2-methylpropyl)phenol]	≥ 31 mg/mL	≥ 261 mg/mL	–
CC[C@@](F)(c1cccc(O)c1)[C@@H](C)CN(C)C [(−)-(1S,2S)-3-(3-dimethylamino-1-ethyl-1-fluoro-2-methyl-propyl)phenol]	≥ 130 mg/mL	≥ 568 mg/mL	–
CC[C@@](O)(c1cccc(OC)c1)[C@@H](C)CN(C)C [(−)-(2S,3S)-1-dimethylamino-3-(3-methoxyphenyl)-2-methylpentan-3-ol]	≥ 90 mg/mL	≥ 2000 mg/mL	–
COc1cc(N)cn[n+]1-c1ccccc1 [Amezinium metilsulfate, Amezinium]	–	–	solubility at 10 min (Solubility of the active compound salt in mg/ml of water): ≥ 25 mg/mL
COc1cc(N)cn[n+]1-c1ccccc1 [Amezinium saccharinate, Amezinium]	–	–	solubility at 10 min (Solubility of the active compound saccharinate in mg/ml of water): ≥ 8 mg/mL
COc1ccc2c3c1O[C@H]1[C@@H](O)C=C[C@H]4[C@@H](C2)N(C)CC[C@@]341 [Codeine phosphate hemihydrate, Codeine]	–	≥ 250 mg/mL	–
COc1ccc2c3c1O[C@H]1[C@@H](O)C=C[C@H]4[C@@H](C2)N(C)CC[C@@]341 [Codeine saccharinate, Codeine]	≥ 200 mg/mL	–	–
CNC[C@H](O)c1cccc(O)c1 [Phenylephrine hydrochloride, Phenylephrine]	–	≥ 1250 mg/mL	–
CNC[C@H](O)c1cccc(O)c1 [Phenylephrine saccharinate, Phenylephrine]	≥ 380 mg/mL	–	–
Benzalkonium [Benzalkonium hydrochloride]	–	–	Solubility of the active compound salt in mg/ml of water (conventional salt of the active compound (salt indicated in brackets), ion-free water, 20° C.): ≥ 500 mg/ml of water
Benzalkonium [Benzalkonium saccharinate]	–	–	Solubility of the active compound saccharinate in mg/ml of water [3]: <2 mg/ml of water
